Like-named read-outs stand apart in the source and are kept apart here.
What was measured:
[1] = test system: tetrodotoxin-resistant (TTX-R) Na^+ channels; settings: cited from earlier work
[2] = test system: VGSCs in cardiac or skeletal muscles; settings: mammals; ref previous works; cited from earlier work
rNav1.2/β1 = settings: Xenopus laevis oocytes; ref previous works; cited from earlier work
hERG K^+ channel = settings: 100 μM
mice = assay: acute in vivo toxicity in mice; set-up: species or system mouse
Procedure: (§1) Five mice (17–19 g) were injected intravenously with multiple […] doses of 0.5–2.5 mg/kg HNTX-I (in mammalian Ringer solution with 1% ethanol and 2.5% BSA). Five control mice were injected with an equal volume of the vehicle. The toxicity of HNTX-I was qualitatively assayed by intra-abdominal injection into adult male cockroaches (Periplaneta) with body weights of 0.8–1.2 g at doses of 50–250 μg/g using 10-μL solutions (in 0.85% (w/v) normal saline).

neuronal TTX-S VGSCs = settings: adult rat dorsal root ganglion neurons; ref previous works (ref 9); cited from earlier work
[3] = test system: voltage-gated T-type Ca^2+ channels; assay: T-type Ca^2+ channels from DRG, whole-cell patch-clamp; type: cell-based; settings: 100 μM; rat DRG; n = 5
[4] = test system: voltage-gated Na^+ channels; assay: voltage-gated Na^+ channels, summary of screening; type: cell-based, rat; settings: 100 μM
BK channels = assay: BK channel current in HEK293T cells, whole-cell patch-clamp; type: cell-based; settings: 100 μM, n = 5
[5] = test system: voltage-gated L-type Ca^2+ channels; assay: L-type Ca^2+ channels from DRG, whole-cell patch-clamp; type: cell-based; settings: 100 μM; rat DRG; n = 5
VGSCs = settings: ref previous work; cited from earlier work
Source text: In general, hydrophobic and polar residue hot spots are important binding determinants in toxins and ion channel interactions. […] HNTX-I should therefore present a similar type of interacting surface as other toxins whose binding sites are at the outer membrane. In our previous work, we have shown that such a basic profile ...

[6] = test system: voltage-gated Ca^2+ channels; assay: voltage-gated Ca^2+ channels, summary of screening; type: cell-based, rat; settings: 100 μM
hIK1 [7] = molecular target: T1, hIK1 (Homo sapiens, UniProt O15554); type: cell-based; settings: for enhancement of the amplitude of IK currents: 0.3 μM free Ca^2+ in pipette, voltage ramps
T1 construct: expressed in transfected cells; host or cells: HEK293T cells, transient transfection with Lipofectamine 2000

[8] = test system: mouse phrenic nerve-diaphragm preparations; assay: phrenic nerve-diaphragm twitch-tension (phrenic nerve conduction block)
Procedure: The twitch-tension experiments were performed using mouse phrenic nerve-diaphragm preparations. Adult Kunming albino mice (18–22 g of either gender) were killed by cervical dislocation. After dissection, the preparations were placed in a Plexiglas chamber immersed in Tyrode’s solution or toxin solutions continuously bubbled with 95% O2, 5% CO2 and maintained at 30–32 °C. The electrical stimulation was applied indirectly to the phrenic nerve with a suction electrode at 0.2 Hz with pulses of 0.2 ms in duration and supramaximally. For direct stimulation, the muscle was stimulated at a frequency of 0.2 Hz (supramaximal, 2 ms, square wave). A mechanical-electric transducer made of a semiconductor strain gauge was used to transform the twitch responses into electric signals. […] The time from the application of HNTX-I to complete blocking of neuromuscular transmission was defined as blocking time, and the concentrations of HNTX-I we used were 1 μM, 10 μM and 100 μM.

[9] = test system: American cockroach (Periplaneta americana); assay: acute in vivo toxicity in American cockroach; settings: intra-abdominal injection, 50–250 μg/g; adult male; 7 days
Procedure: as §1

para/tipE = settings: Xenopus laevis oocytes; ref previous works; cited from earlier work
L-type Ca^2+ channels = settings: read-out: IC50 for block of L-type Ca^2+ channels; cited from earlier work
Source text: (§2) There are a variety of valuable pharmacological tools available to study the contribution of specific IK channels to the mechanism of endothelium-dependent dilation in isolated vessels and to blood pressure control in vivo. IK channel modulators mainly comprise small organic compounds and venom-derived peptides. These different classes of chemicals modulate the channel by binding to either the external or the internal face of the ion-conducting pore. Among the different ion modulators, venom-derived peptides usually block their targets with high affinity, that is, with IC50 in the […] ...

[10] = test system: cardiac hERG K^+ channels; settings: micromolar concentrations; cited from earlier work
Source text: as §2

hIK1 [11] = molecular target: T1, hIK1; settings: hIK1 cell line; read-out: EC50 for hIK1 activation; cited from earlier work
Source text: The intermediate-conductance Ca^2+-activated K^+ (IK) channels belong to the gene family of calcium/calmodulin-regulated and voltage-independent K^+ channels (SK1/SK2/SK3 and IK) and contribute to cellular functions by producing membrane hyperpolarization, thus regulating intracellular Ca^2+ signaling. IK channels are gated solely by internal Ca^2+, with a unit conductance of 20–85 pS. Expression of hIK1 in HEK293T cells gives rise to inwardly rectifying K^+ currents, which are activated by submicromolar concentrations of intracellular Ca^2+ (EC50 = 0.3 μM). […] After the application of 80 μM HNTX-I, NS309 still activated the current about 1.5-fold (Figure 3A). […] After the initial equilibration period, HNTX-I was added at 80 μM to yield a higher current within ~3 min. Then, 100 nM NS309 was applied and reached the peak in under 1 min. Thus, the p ...

[12] = intravenous, 0.5–2.5 mg/kg, seven days

T1 sequence (O15554 whole entry): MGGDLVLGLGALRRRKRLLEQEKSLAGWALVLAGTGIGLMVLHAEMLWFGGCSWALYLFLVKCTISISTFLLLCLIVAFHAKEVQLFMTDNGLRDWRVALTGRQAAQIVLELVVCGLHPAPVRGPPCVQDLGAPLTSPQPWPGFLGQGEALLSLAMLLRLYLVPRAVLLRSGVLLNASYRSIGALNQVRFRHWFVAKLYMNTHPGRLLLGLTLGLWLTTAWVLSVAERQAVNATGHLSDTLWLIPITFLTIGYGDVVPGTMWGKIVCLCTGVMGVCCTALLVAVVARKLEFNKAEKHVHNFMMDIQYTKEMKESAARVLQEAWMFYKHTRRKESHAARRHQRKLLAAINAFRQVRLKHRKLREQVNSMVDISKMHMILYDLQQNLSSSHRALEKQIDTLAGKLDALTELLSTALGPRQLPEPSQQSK

Q: What does the source list for Hainantoxin-I [HNTX-I]?
A: effect on TTX-R Na^+ channels [1]: no effect; effect on VGSCs in cardiac or skeletal muscles [2]: nor does it target VGSCs; block of rNav1.2/β1 (rNav1.2/β1): selectively blocks; sensitivity of hERG K^+ channels (hERG K^+ channel): insensitive; effect on hERG K^+ channel (hERG K^+ channel; HEK293T cells, n = 5): no effect; clinical appearance (mice; intravenous, 0.5, 1.0, 1.5, 2.0 and 2.5 mg/kg, five mice per dose, seven-day study): appeared clinically normal; aggressive/defensive responses (mice; [12]): no aggressive/defensive responses were elicited; death (mice; [12]): did not cause death at any concentration; depilation of pelage (mice; [12]): not depilated; effect on neuronal TTX-S VGSCs (neuronal TTX-S VGSCs): no effect; effect on T-type Ca^2+ channels [3]: no effect; sensitivity of voltage-gated Na^+ channels [4]: insensitive; effect on BK channels (BK channels): no effect; effect on L-type Ca^2+ channels [5]: no effect; inhibition of VGSCs in vertebrates and insects (VGSCs): inhibits VGSCs; sensitivity of voltage-gated Ca^2+ channels [6]: insensitive; enhancement of the amplitude of IK currents (hIK1 [7]; 40 μM HNTX-I, n = 5): 33.2% ± 0.5; reversibility / dose-dependency on hIK1 (hIK1 [7]; 80 μM HNTX-I): clearly demonstrated the dose-dependency, as well as reversible nature; time to yield higher current (hIK1 [7]; 80 μM HNTX-I, after initial equilibration, before NS309): ~ 3 min; enhancement of the amplitude of IK currents (hIK1 [7]; 80 μM HNTX-I, n = 5): 97% ± 0.7; Imax (hIK1 [7]; 80 μM HNTX-I, current shortly before application = 100%): 197%; Imax at higher concentration (hIK1 [7]; 200 μM HNTX-I, compared with 80 μM): did not change; time to reach higher current level (hIK1 [7]; after 40 μM HNTX-I applied, n = 5): ~ 3 min; return of current to baseline upon washing (hIK1 [7]; washing after 40 μM HNTX-I, n = 5): the current returned to baseline with approximately the same time characteristics; inhibition of nerve-evoked twitch tension ([8]; 1 μM, Tyrode's solution, 30–32 °C): did not inhibit the nerve-evoked twitch tension; influence on neuromuscular transmission ([8]; 100 μM or lower): did not influence the neuromuscular transmission; blockade of twitch responses ([8]; 10 and 100 μM, within 4 h, n = 5): no apparent blockades in the twitch responses; symptoms of poisoning [9]: did not produce symptoms of poisoning; block of para/tipE (para/tipE): selectively blocks

Q: With `CCn1c(=O)[nH]c2cc(Cl)c(Cl)cc21` [DC-EBIO, 5,6-dichloro-1-ethyl-1,3-dihydro-2H-benzimidazole-2-one] as the compound, how does the IC50 (L-type Ca^2+ channels) read?
A: The IC50 was 70 µM.

Q: For `O=C1Nc2c(ccc(Cl)c2Cl)C1=NO` [NS309, 3-oxime-6,7-dichloro-1H-indole-2,3-dione, reference compound], which IC50 (L-type Ca^2+ channels) is on record?
A: Its IC50 is 10 µM.

Q: What about the “inhibition of cardiac hERG K^+ channels” value [10] of the same compound?
A: The value was “inhibits”.

Q: What about the EC50 (hIK1 [11]) of the same compound?
A: Its EC50 is 0.03 µM.

Q: And the “activation of hIK1 channels in the presence of HNTX-I” value (hIK1 [7]; 100 nM NS309, 80 μM HNTX-I)?
A: Its value is “activated hIK1 channels”.

Q: What about the “activation of current after HNTX-I (fold)” value (hIK1 [7]; 100 nM NS309 after application of 80 μM HNTX-I) of the same compound?
A: The value was “about 1.5 fold”.

Q: And the “influence of HNTX-I on potency and kinetics of NS309” value (hIK1 [7]; 100 nM NS309 in the presence of 80 μM HNTX-I)?
A: Its value is “not notably influenced by HNTX-I”.

Q: What about the “time to peak of NS309 activation” value (hIK1 [7]; 100 nM NS309 in the presence of 80 μM HNTX-I, n = 5) of the same compound?
A: Its value is “under 1 min”.

Reference: publication PMC4147597 (Toxins, 2014)
